Data on three compounds can be found in patent US20250154120A1, “COUMARIN COMPOUNDS AND USES THEREOF” (priority 2022, published 2025).

One series deals with HCT116 cells. The series can be described thus: HCT116 cell proliferation inhibition in vitro (3D CellTiter-Glo, 5 days). The settings on record: Homo sapiens, HCT-116, 120 h, read-out: HCT116/IC50. It counts as cell-based. The procedure: McCoy's 5A medium, penicillin/streptomycin antibiotics purchased from Vicente, fetal bovine serum purchased from Biosera. 3D CellTiter-Glo (cell viability chemiluminescence detection reagent) reagent purchased from Promega. HCT116 cell line purchased from Nanjing Kebai Biotechnology Co., Ltd. Envision multi-label analyzer (PerkinElmer).
HCT116 cells were seeded in ultra-low attachment 96-well U-shaped plates, with 80 μL of cell suspension per well, containing 1000 HCT116 cells. The cell plate was cultured in a carbon dioxide incubator overnight.
The compound to be tested was serially diluted 5-fold to the 9th concentration using a pipette, that is, from 2 mM to 5.12 nM, in duplicates. 78 μL of culture medium was added to a middle plate, and then 2 μL of the serially diluted compound per well was transferred to the middle plate according to the corresponding position. After mixing well, 20 μL of the mixture was transferred to each well of the cell plate. The concentration range of the compound transferred to the cell plate was 10 μM to 0.0256 nM. The cell plate was placed in a carbon dioxide incubator and cultured for 5 days. Another cell plate was prepared, and its signal value was read on the day of drug addition as the […] for data analysis.
100 μL of cell viability chemiluminescent detection reagent was added to the cell plate and the mixture was incubated at room temperature for 10 minutes to stabilize the luminescent signal. The plate was read using a multi-label analyzer.
The raw data was converted into inhibition rate using the equation (Sample−Min)/(Max−Min)*100%, and the IC50 value may be obtained by four-parameter curve fitting (obtained in the “log(inhibitor) vs. response—Variable slope” mode in GraphPad Prism). The assay results of the inhibitory activity of the compounds of the present disclosure on HCT116 cell proliferation are shown in Table 1.
In general terms: Cellular ATP, detected with luciferase, serves as a proxy for viable cell number.

Series [1] can be described thus: Pharmacokinetic study in CD-1 male mice after oral and intravenous administration. Format: in vivo. The settings on record: mouse, plasma; for AUC(0-t): read-out: Area under the plasma concentration-time curve AUC0-last. As to the method: Pharmacokinetic study of the test compound in CD-1 male mice after oral and intravenous injection
The test compound was mixed with 10% dimethyl sulfoxide/30% PEG-400/60% aqueous solution, vortexed and sonicated to prepare a 0.20 mg/mL clear solution. The clear solution was filtered through a microporous filter for later use. Male CD-1 mice aged 7 to 10 weeks were selected and intravenously injected with a candidate compound solution and a reference compound VS-6766 solution. The reference compound and the test compound were respectively mixed with 20% sulfobutyl-β-cyclodextrin/80% aqueous solution, vortexed and sonicated to prepare a 0.20 mg/mL nearly transparent solution containing fine particles, and the candidate compound solution was orally administered. Whole blood was collected for a certain period of time, and the plasma was prepared. The drug concentration was analyzed by LC-MS/MS method, and the pharmacokinetic parameters were calculated using Phoenix WinNonlin software (Pharsight, USA).

The next series deals with NCI-H358. The series is described as follows: Subcutaneous xenograft tumor model of human non-small cell lung cancer NCI-H358 in female BALB/c Nude mice. Format: in vivo, mouse. The procedure:
In vivo pharmacodynamic study of the test drug on the subcutaneous xenograft tumor model of human non-small cell lung cancer NCI-H358 in female BALB/c Nude mice
1. Cell culture: Human lung cancer cells NCI-H358 (ECACC-95111733) were revived and cultured in vitro in monolayers in RPMI 1640 medium with 10% fetal bovine serum and 1% double antibody. The cells were cultured in a 37° C. 5% CO2 cell incubator, and passaged twice a week. When the saturation of NCI-H358 cells reached 80%-90%, the cells were harvested, counted, and inoculated.
2. Animals: BALB/c Nude mice, female, 6-8 weeks old, weighing 18-22 g
3. Tumor inoculation: 5×10^6 NCI-H358 cells were inoculated on the right side of the neck of each mouse, with an inoculation volume of 0.1 mL. The cell suspension was a mixture of PBS and Matrigel (3:1). When the average tumor volume reached 150-200 mm^3, the mice were randomly divided into groups for drug administration. The drug administration scheme and the number of assay animals in each group are shown in Table 3 below: Assay animal grouping and administration regimen
The assay index is to examine whether the tumor growth is inhibited, delayed or cured. The tumor diameter was measured with a vernier caliper twice a week. The calculation formula of tumor volume is: V=0.5 a×b^2, where a and b represent the long diameter and short diameter of the tumor respectively.
The anti-tumor efficacy of the compound was evaluated by TGI (%) or relative tumor proliferation rate T/C (%). TGI (%) reflects the tumor growth inhibition rate. Calculation of TGI (%): TGI (%)=[1−(average tumor volume of a certain treatment group at a certain measurement−average tumor volume of the treatment group at grouping)/(average tumor volume of the vehicle control group at the same measurement−average tumor volume of the vehicle control group at grouping)]×100%. Relative tumor proliferation rate T/C (%): The calculation formula is as follows: T/C %=TRTV/CRTV×100% (TRTV: RTV of the treatment group; CRTV: RTV of the negative control group). The relative tumor volume (RTV) was calculated based on the results of tumor measurement. The calculation formula is RTV=VtV0, where V0 is the average tumor volume measured at grouping (i.e. PG-D0), Vt is the average tumor volume at a certain measurement, and TRTV and CRTV are taken from the same day.
TGI (%) reflects the tumor growth inhibition rate. TGI (%)=[(1−(average tumor volume at the end of a treatment group's administration−average tumor volume at the beginning of the treatment group's administration))/(average tumor volume at the end of the vehicle control group's treatment−average tumor volume at the beginning of the vehicle control group's treatment)]×100%.
Background: In xenograft studies the graft and the host belong to different species.

Where [2] appears, read: HCT116 cells, 5 days culture, cell viability chemiluminescence.
[3] abbreviates: 0.3 mg/kg p.o. QD, day 28 (discontinued D10-D17 and D23-D25).
The mark [4] stands for this setting: 1.5 mg/kg p.o. QD, day 28 (discontinued D3-D13, changed to 0.05 after D14).

Like-named read-outs stand apart in the source and are kept apart here.

With `CNS(=O)(=O)Nc1cccc(Cc2c(C)c3c(F)cc(Oc4ncccn4)cc3oc2=O)c1F` [Compound 1], the IC50 in the series on HCT116 cells (setting [2]) is 0.017 µM.

Regarding `CNS(=O)(=O)Nc1cccc(Cc2c(C)c3c(F)cc(OC(=O)N(C)C)cc3oc2=O)c1F` [Compound 2], the IC50 with HCT116 cells is 0.0072 µM.

The Tmax is the time from dosing to the highest level. One may read the bioavailability as dose-corrected exposure relative to a reference, in per cent. The term T/C denotes the result in the treated group divided by that in the control group, in per cent. For the compound `CNS(=O)(=O)Nc1nccc(Cc2c(C)c3c(F)cc(Oc4ncccn4)cc3oc2=O)c1F` [Compound 3], the IC50 in the series with HCT116 cells (setting [2]) turned out to be 0.0287 µM. Also, the Vd in series [1] (intravenous injection, 1.04 mg/kg, read-out: Apparent volume of distribution Vdss) came out at 0.35 L/kg. Besides, the AUC(0-t) in series [1] (intravenous injection, 1.04 mg/kg) was 46.8 µM·h. Moreover, in series [1] (intravenous injection, 1.04 mg/kg, read-out: Clearance CL), the clearance was 0.69 mL/min/kg. In addition, the half-life in series [1] (intravenous injection, 1.04 mg/kg, read-out: Half-life T1/2 (converted)) was 5.73 h. In addition, the AUC(0-t) in series [1] (oral administration, 2.16 mg/kg) amounted to 85.8 µM·h. For the same compound, the Cmax in series [1] (oral administration, 2.16 mg/kg, read-out: Peak concentration Cmax) was determined as 10.9 µM. The Tmax in series [1] (oral administration, 2.16 mg/kg, read-out: Time to peak Tmax) stood at 0.63 h. Moreover, the bioavailability in series [1] (oral administration, 2.16 mg/kg, read-out: Bioavailability F) turned out to be 89.8%. For the same compound, in the series with NCI-H358 (setting [3]), the Mean tumor volume is given as 71 mm^3, the T/C is 7.90% and the TGI worked out at 111.4%. In the series with NCI-H358 (setting [4]), the Mean tumor volume came out at 67 mm^3, the T/C is reported as 7.45% and the TGI is given as 111.9%.
